Columns and labels:
Assay type in all cases: cell-based, human
MCF-7 cells [1] = assay: Flow cytometric analysis of cell- and exosomal-surface expression of ADAM15; conditions: flow cytometry; 5 ng/Ml PMA for 24 h
Experimental: FIG. 2 verifies that released ADAM15 is associated with exosomes, and exosome-mediated ADAM15 is secreted by PMA-stimulated PKC activation. […] Conditioned medium of MCF-7 cells treated with or without 5 ng/Ml PMA for 24 h was subjected to sequential centrifugation as follows: 300×g (P1), 1,200×g (P2), 10,000×g (P3), 100,000×g (P4), and 100,000×g after filtering through a 0.22-μm pore size filter (P4′). Pellets from each stage were subjected to western blotting analysis using an anti-ADAM15 cytoplasmic domain antibody. Arrows indicate pro-ADAM15 (P) and mature ADAM15 (M), respectively. […] Isolated microvesicles from conditioned medium of MCF-7 cells treated with 5 ng/Ml PMA were subjected to sucrose gradient centrifugation. Each fraction was concentrated prior to SDS-PAGE. […] After ultracentrifugation at 100,000×g, the pellets were analyzed by immunoblotting with antibody to ADAM15 cytoplasmic domain. […] Isolated exosomes were analyzed by immunoblotting with ADAM15 antibody. […] The percent changes in fluorescence intensity associated with the presence of ADAM15 are shown.
Flow cytometric analysis of exosomes was performed as previously described with minor modifications (Thery et al., 2001). […] Flow cytometry was performed on a FACSCalibur (BD Biosciences), and data were analyzed using WinMDI software version 2.8 (The Scripps Research Institute, La Jolla, Calif.).

THP-1 cells = assay: Release of exosomal ADAM15 from THP-1 cells; conditions: THP-1 cells incubated with PMA in serum-free medium for 24 h
Experimental: (§1) FIG. 9 verifies that the release of exosomal ADAM15 is further induced by LPS stimulation in differentiated THP-1 macrophages. […] THP-1 cells were incubated with PMA in serum-free medium for 24 h. Arrows indicate pro-ADAM15 and mature ADAM15, respectively. Total protein bands of exosomes were shown by Coomassie blue staining (middle penal). In the graph of the right panel, data are represented as the mean±standard deviation of three experiments. […] PMA-differentiated THP-1 cells were washed with PBS and further cultured for 2˜3 days. THP-1 macrophages were incubated with LPS in serum-free medium for 18 h. Exosomes were isolated from conditioned media. Arrows indicate pro-ADAM15 and mature ADAM15, respectively. Total protein bands of exosomes were shown by Coomassie blue staining (middle penal). The right panel represents the mean and standard deviation of three experiments. […] THP-1 cells were treated with or without PMA and/or LPS in serum-free medium for 18 h. […]
(§2) Cells were incubated with or without PMA in serum-free medium or medium containing 5% FBS for 24 h. […] Protein concentration was measured by a modified Bradford assay (Bio-Rad Laboratories, Hercules, Calif.). […] The tubes were then ultracentrifuged at 100,000×g for 2.5 h in a Beckman SW 55 Ti rotor, and fractions with different densities were sequentially collected from the top of the tube and analyzed for exosomes containing ADAM15.

MCF-7 cells [2] = assay: Semi-quantitative RT-PCR analysis of ADAM15 mRNA in MCF-7 cells; conditions: 5 ng/Ml PMA for the indicated times
HEK293F cells = assay: Exosomal ADAM15 enrichment in transfected HEK293F cells (immunoblotting); conditions: 5 ng/Ml PMA for 24 h
Experimental: FIG. 3 verifies that ADAM15-rich exosomes have a high binding affinity for integrin αvβ3 and prevents interactions between integrin αvβ3 and vitronectin. […] FIGS. 3B and 3C show immunoblotting analysis. Prior to exosome isolation, transfected cells were stimulated with or without 5 ng/Ml PMA for 24 h, and the isolated exosomes were analyzed by immunoblotting analysis with the indicated antibodies. The exosomes were incubated with purified integrin αvβ3 (FIG. 3B) or α5β1 (FIG. 3C), followed by ultracentrifugation. The precipitates were analyzed by immunoblotting analysis. In the graphs, the immunoblotting results are represented by the relative intensity. […] Exosomes were incubated with purified integrin αvβ3 on a vitronectin-coated plate, and bound integrins were detected by anti-integrin αvβ3 antibody. […] After 2-h incubation, the number of bound cells was determined by MTT assay (OD: 540 nm). […]
as §2

MCF-7 cells [3] = assay: ADAM15 release from MCF-7 cells into conditioned medium and levels in cell lysates (western blotting)
Experimental: FIG. 1 verifies that ADAM15 is released into the extracellular space. […] MCF-7 cells were incubated with 5 ng/Ml PMA in serum-free RPMI 1640 medium. P indicates pro-ADAM15 and M indicates mature ADAM15. In the results of the lower panel, data are represented as the mean±standard deviation of four experiments. *P<0.01; Student's t test. […] Cells were treated as described in the drawing. Arrows indicate pro-ADAM15 (P) and mature ADAM15 (M), respectively.
Cells were lysed in buffer containing 50 Mm Tris-HCl, pH 7.5, 5 mM EDTA, 150 mM NaCl, 1% Triton X-100, and protease inhibitor cocktail (Roche Applied Science, Indianapolis, Ind.) for 1 h at 4° C. and then centrifuged. The soluble portion of the lysate was used for western blotting, which was performed by separation of reduced or non-reduced samples on SDS-PAGE, followed by electroblotting to nitrocellulose membranes and detection of bound antibody by enhanced chemiluminescence (Amersham Biosciences, Pittsburgh, Pa.).
There are several studies showing that various membrane proteins are secreted into the extracellular space through ectodomain shedding or microvesicle release (van Kilsdonk et al., 2010). Here, we examined whether ADAM15 protein is released from human breast cancer MCF-7 cells into conditioned medium. Mature ADAM15 was detected in the conditioned medium by immunoblotting analysis with an antibody against ADAM15 extracellular domain (FIG. 1A). […] In MCF-7 cells, both the pro and mature forms of ADAM15 were detected. […] The mRNA levels of ADAM15 after PMA stimulation were also assessed. […] We further investigated whether released ADAM15 was generated by ectodomain shedding.

MCF-7 cells [4] = assay: Exosome-associated ADAM15 release from MCF-7 cells (sequential centrifugation, immunoblotting); conditions: 5 ng/Ml PMA for 24 h; 100,000×g pellet
Experimental: FIG. 2 verifies that released ADAM15 is associated with exosomes, and exosome-mediated ADAM15 is secreted by PMA-stimulated PKC activation. […] Conditioned medium of MCF-7 cells treated with or without 5 ng/Ml PMA for 24 h was subjected to sequential centrifugation as follows: 300×g (P1), 1,200×g (P2), 10,000×g (P3), 100,000×g (P4), and 100,000×g after filtering through a 0.22-μm pore size filter (P4′). Pellets from each stage were subjected to western blotting analysis using an anti-ADAM15 cytoplasmic domain antibody. Arrows indicate pro-ADAM15 (P) and mature ADAM15 (M), respectively. […] After ultracentrifugation at 100,000×g, the pellets were analyzed by immunoblotting with antibody to ADAM15 cytoplasmic domain. […] Isolated exosomes were analyzed by immunoblotting with ADAM15 antibody. […] The percent changes in fluorescence intensity associated with the presence of ADAM15 are shown.
as §2

MDAH-2774 cells = assay: Effect of PKC inhibitor on secretion of exosome-associated ADAM15; conditions: PMA and indicated concentrations of calphostin C for 24 h
THP-1 macrophages = assay: Release of exosomal ADAM15 from differentiated THP-1 macrophages; conditions: THP-1 macrophages incubated with LPS in serum-free medium for 18 h
Experimental: as §1, §2

Molecule: CCCCCCCCCCCCCC(=O)O[C@@H]1[C@@H](C)[C@@]2(O)[C@@H](C=C(CO)C[C@]3(O)C(=O)C(C)=C[C@@H]23)[C@@H]2C(C)(C)[C@]12OC(C)=O [PMA, phorbol 12-myristate 13-acetate]
- exosomal-surface ADAM15 (MCF-7 cells [1]): increase
- plasma membrane-associated ADAM15 (MCF-7 cells [1]): decrease
- release of exosomal ADAM15 (THP-1 cells): effectively increased
- ADAM15 mRNA levels (MCF-7 cells [2]): unchanged
- exosomal ADAM15 in exosomes of ADAM15-transfected cells (HEK293F cells): further exosomal enrichment
- ADAM15 release into conditioned medium (MCF-7 cells [3]; 5 ng/Ml PMA, serum-free RPMI 1640, antibody against ADAM15 extracellular domain): largely increased
- other membrane proteins ADAM10 and E-cadherin in cells (MCF-7 cells [3]; cell lysates after PMA stimulation): unchanged
- pro and mature forms of ADAM15 in cells (MCF-7 cells [3]; cell lysates, time after PMA stimulation, barely detectable after 24 hrs): decreased with time
- amount of exosomal ADAM15 (MCF-7 cells [4]): increased

Molecule: calphostin C
- PMA-stimulated ADAM15 release (MDAH-2774 cells): successfully blocked

Molecule: lipopolysaccharide [LPS]
- release of exosomal ADAM15 (THP-1 macrophages): enhanced

From patent US20140212949A1, “METHOD FOR PREPARING MICROVESICULAR ADAM15” (INDUSTRY-ACADEMIC COOPERATION FOUNDATION, YONSEI UNIVERSITY, priority 2011, published 2014)
